Experimental data published in publication PMC6627609, “Targeting Quorum Sensing: High-Throughput Screening to Identify Novel LsrK Inhibitors” (International Journal of Molecular Sciences, 2019).
“And” between values parts separate entries of the source, which are not always exact repeats. Identical values can stand only once. Like-named read-outs stand apart in the source and are kept apart here.

Tests used:
[1] = biological target: T1, His-LsrK (Salmonella typhimurium, UniProt Q8ZKQ6); assay: Thermal shift assay; assay type: binding, S. typhimurium; details: for shift in the Tm of His-LsrK: mean ± 95% CI; for shift in the Tm of His-LsrK (in words): dose range of test compound
Description: Compounds were added to qPCR plates by Echo acoustic dispenser with a DMSO backfill to maintain a constant final concentration of DMSO in each well (the assay is tolerant up to 8% DMSO with no effect on Tm of LsrK). LsrK protein was added at a concentration of 1 µg per well in a volume of 10 µL with 1× Thermo thermal shift dye or 5× Sypro Orange dye (used for aurin tricarboxylic acid as this compound fluoresces with Thermo dye in 25 mM TEA, 200 µM MgCl2, pH 7.1). Appropriate DMSO-only negative controls and 1 mM ATP/DMSO positive controls were included in each test occasion. Using an Applied Biosystems Quant Studio 5 qPCR machine (Thermo Fisher Scientific, Waltham, MA, USA) the following thermal shift protocol was used: step 1—hold at 25 °C for 1 min; step 2—heat at 0.05 °C/s dissociation then hold at 99 °C for 1 min. Filter setting for Thermo dye: Ex/Em 580/623 nm and for Sypro Orange dye: Ex/Em 470/520 nm.

[2] = biological target: LsrK (Salmonella typhimurium, UniProt Q8ZKQ6); assay: biochemical; assay type: biochemical, S. typhimurium; details: for Inhibition (%): 50 µM
[3] = test system: mouse; details: ref MicroSource annotations, cited from earlier work
[4] = test system: E. coli LW7 pLW11; assay: AI-2 QS interference assay; assay type: cell-based; details: for IC50: dose-response in the presence of PAβN, read-out: IC50 AI-2 QS inhibition
[5] = biological target: T1, His-LsrK; assay: MST assay; assay type: binding, S. typhimurium; details: 95% CI
[6] = test system: His-tagged control peptide or SDS denatured His-LsrK; assay: MST assay, specificity controls; assay type: binding
[7] = cited from earlier work
[8] = test system: rat; details: cited from earlier work
[9] = test system: E. coli pBAC-lacZ; assay: Control strain β-gal assay (QS-independent lac promoter); assay type: cell-based
[10] = ip, ref MicroSource annotations
[11] = po, ref MicroSource annotations

LsrK, sequence (Q8ZKQ6 whole entry): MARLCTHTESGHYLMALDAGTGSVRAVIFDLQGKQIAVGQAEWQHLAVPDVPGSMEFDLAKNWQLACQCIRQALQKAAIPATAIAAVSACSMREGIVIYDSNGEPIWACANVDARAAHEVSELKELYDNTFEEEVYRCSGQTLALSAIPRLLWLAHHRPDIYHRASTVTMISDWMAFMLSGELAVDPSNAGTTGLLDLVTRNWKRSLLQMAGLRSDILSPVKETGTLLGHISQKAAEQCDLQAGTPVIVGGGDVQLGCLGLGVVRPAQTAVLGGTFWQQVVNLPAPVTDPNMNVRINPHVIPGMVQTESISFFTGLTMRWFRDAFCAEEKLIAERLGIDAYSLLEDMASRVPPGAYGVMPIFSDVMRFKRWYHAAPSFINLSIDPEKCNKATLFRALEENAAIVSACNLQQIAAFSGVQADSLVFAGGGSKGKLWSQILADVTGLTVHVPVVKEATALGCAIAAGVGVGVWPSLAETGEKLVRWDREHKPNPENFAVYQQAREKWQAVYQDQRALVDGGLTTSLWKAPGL
T1 sequence (Q8ZKQ6 whole entry): as above

Compound: CCCCCCCCCCCCCCCCC(C(=O)O)C(O)(CC(=O)O)C(=O)O (centres unmarked) [AGARIC ACID]
- shift in the Tm of His-LsrK ([1]; 10 µM): −4.7 ± 0.70 °C
- IC50 [2]: 7 µM
- inhibition at 50 µM [2]: 157%

Compound: CN[C@@H]1[C@@H](O[C@H]2O[C@H](CO)[C@@H](N)[C@H](O)[C@H]2O)OC2C[C@@H](N)[C@@H](O[C@H]3[C@H](O)[C@@H](O)[C@H](N)C[C@@H]3N)OC2[C@@H]1O (some centres unmarked) [APRAMYCIN]
- inhibition at 50 µM [2]: 3%
- LD50 ([3]; iv): 280 mg/kg

Compound: O=C(O)C1=CC(=C(c2ccc(O)c(C(=O)O)c2)c2ccc(O)c(C(=O)O)c2)C=CC1=O [AURIN TRICARBOXYLIC ACID]
- inhibition of AI-2 mediated QS ([4]; 10 µM, in the presence of PAβN): No significant activity
- inhibition of AI-2 mediated QS ([4]; 50 µM, in the presence of PAβN): No significant activity
- shift in the Tm of His-LsrK ([1]; 20 µM): −0.85 ± 0.38 °C
- Kd [5]: 0.408 ± 0.0699 µM
- binding in MST to control peptide or SDS denatured His-LsrK [6]: no binding
- IC50 [2]: 1 µM
- inhibition at 50 µM [2]: 96%

Compound: CC1=C(O)C(=O)C=C2C1=CC=C1[C@@]2(C)CC[C@@]2(C)[C@@H]3C[C@](C)(C(=O)O)CC[C@]3(C)CC[C@]12C [CELASTROL]
- solubility [7]: poor solubility
- IC50 [2]: 4 µM
- inhibition at 50 µM [2]: 109%

Compound: C[C@@H]1CC[C@@]2(OC1)O[C@H]1C[C@H]3[C@@H]4CC=C5C[C@@H](O)CC[C@]5(C)[C@H]4CC[C@]3(C)[C@H]1[C@@H]2C [DIOSGENIN]
- LD50 [8, 10]: 4872 mg/kg
- inhibition at 50 µM [2]: 0%
- LD50 ([3]; po): > 8000 mg/kg

Compound: C=C1CC[C@H](O)C/C1=C/C=C1\CCC[C@]2(C)[C@@H]([C@H](C)/C=C/[C@H](C)C(C)C)CC[C@@H]12 [ERGOCALCIFEROL]
- LD50 ([8]; in vivo, po): 56 mg/kg
- inhibition at 50 µM [2]: 56%

Compound: CC(C)=CCC[C@]1(C)C=Cc2c(O)c3c(c(CC=C(C)C)c2O1)O[C@]12C(=C[C@@H]4C[C@H]1C(C)(C)O[C@@]2(C/C=C(/C)C(=O)O)C4=O)C3=O [GAMBOGIC ACID]
- LD50 [8, 10]: 88 mg/kg
- inhibition at 50 µM [2]: 89%

Compound: C[C@]1(OC(=O)/C=C/c2ccccc2)C[C@@H](O)[C@]2(O)C=CO[C@@H](O[C@@H]3O[C@H](CO)[C@@H](O)[C@H](O)[C@H]3O)[C@@H]21 [HARPAGOSIDE]
- inhibition of AI-2 mediated QS ([4]; 10 µM, in the presence of PAβN): only minor
- inhibition at 50 µM ([4]; Escherichia coli, 50 µM, in the presence of PAβN, read-out: inhibition of AI-2 mediated QS): ~50%
- IC50 ([4]; Escherichia coli): 14 µM
- shift in the Tm of His-LsrK (in words) [1]: significant, dose-dependent, positive shift in the Tm
- Kd [5]: 18.4 ± 0.9 µM
- binding in MST to control peptide or SDS denatured His-LsrK [6]: No binding
- IC50 [2]: 10 µM
- inhibition at 50 µM [2]: 108%

Compound: C[C@H](CCC(=O)O)[C@H]1CC[C@H]2[C@@H]3CC[C@@H]4C[C@H](O)CC[C@]4(C)[C@H]3CC[C@]12C [LITHOCHOLIC ACID]
- inhibition at 50 µM [2]: 2%
- LD50 ([3]; po): 3900 mg/kg

Compound: CC[C@@H](C)C(=O)O[C@H]1[C@H](O)[C@H]2[C@@H](CN3C[C@@H](C)CC[C@H]3[C@@]2(C)O)[C@@H]2C[C@]34O[C@]5(O)[C@@H](OC(=O)[C@@](C)(O)CC)CC[C@@]3(C)[C@@H]5[C@@H](OC(C)=O)[C@@H](OC(C)=O)[C@H]4[C@@]21O [PROT[…]]
- LD50 [8, 11]: 5 mg/kg
- inhibition at 50 µM [2]: 1%

Compound: O=C1C=CC(=C(c2ccc(O)cc2)c2ccc(O)cc2)C=C1 [ROSOLIC ACID]
- inhibition of AI-2 mediated QS ([4]; 50 µM, in the presence of PAβN): nearly complete inhibition
- inhibition at 10 µM ([4]; Escherichia coli, 10 µM, in the presence of PAβN, read-out: inhibition of AI-2 mediated QS): 68%
- IC50 ([4]; Escherichia coli): 11 µM
- shift in the Tm of His-LsrK (in words) [1]: positively stabilizes His-LsrK in thermal shift at high concentrations
- Kd [5]: 100 µM and ~100 µM
- binding in MST to control peptide or SDS denatured His-LsrK [6]: No binding
- effect on β-gal expression or activity in the control strain [9]: marginally affected
- IC50 [2]: 1 µM
- inhibition at 50 µM [2]: 119%

Compound: CC(C)[C@@H]1NC(=O)[C@H](C)OC(=O)[C@@H](C(C)C)NC(=O)[C@@H](C(C)C)OC(=O)[C@H](C(C)C)NC(=O)[C@H](C)OC(=O)[C@@H](C(C)C)NC(=O)[C@@H](C(C)C)OC(=O)[C@H](C(C)C)NC(=O)[C@H](C)OC(=O)[C@@H](C(C)C)NC(=O)[C@@H](C(C)C)OC1=O [VALINOMYCIN]
- LD50 [8, 11]: 4 mg/kg
- inhibition at 50 µM [2]: 1%

Compound: CHLOROPHYLLIDE Cu COMPLEX Na SALT
- Inhibition (%) [2]: 104

Compound: CRESOL
- Inhibition (%) [2]: 0

Compound: GARLICIN
- Inhibition (%) [2]: 10

Compound: GRAMICIDIN
- Inhibition (%) [2]: 0

Compound: HECOGENIN
- Inhibition (%) [2]: 2

Compound: IVERMECTIN
- Inhibition (%) [2]: 1

Compound: KHAYANTHONE
- Inhibition (%) [2]: 11

Compound: MANGANESE TETRAKIS(4-CARBOXYPHENYL)PORPHYRIN CHLORDE
- Inhibition (%) [2]: 1

Compound: MECLOCYCLINE SULFOSALICYLATE
- Inhibition (%) [2]: 93

Compound: METHIONINE SULFOXIMINE (L)
- Inhibition (%) [2]: 2

Compound: NEOMYCIN SULFATE
- Inhibition (%) [2]: 1

Compound: POLYMYXIN B SULFATE
- Inhibition (%) [2]: 48

Compound: TANNIC ACID
- Inhibition (%) [2]: 94

Compound: TEICOPLANIN [TEICOPLANIN [A(2-1) shown]]
- Inhibition (%) [2]: 148%
